What is called Ki is the dissociation constant of the complex between target and ligand, obtained from inhibition or displacement. Low values mean higher affinity, high ones lower affinity.

This assay has as its target D(1B) dopamine receptor (Homo sapiens, UniProt P21918). Description: Inhibition of dopamine D5 receptor (unknown origin).

Chain of D(1B) dopamine receptor (P21918 whole entry): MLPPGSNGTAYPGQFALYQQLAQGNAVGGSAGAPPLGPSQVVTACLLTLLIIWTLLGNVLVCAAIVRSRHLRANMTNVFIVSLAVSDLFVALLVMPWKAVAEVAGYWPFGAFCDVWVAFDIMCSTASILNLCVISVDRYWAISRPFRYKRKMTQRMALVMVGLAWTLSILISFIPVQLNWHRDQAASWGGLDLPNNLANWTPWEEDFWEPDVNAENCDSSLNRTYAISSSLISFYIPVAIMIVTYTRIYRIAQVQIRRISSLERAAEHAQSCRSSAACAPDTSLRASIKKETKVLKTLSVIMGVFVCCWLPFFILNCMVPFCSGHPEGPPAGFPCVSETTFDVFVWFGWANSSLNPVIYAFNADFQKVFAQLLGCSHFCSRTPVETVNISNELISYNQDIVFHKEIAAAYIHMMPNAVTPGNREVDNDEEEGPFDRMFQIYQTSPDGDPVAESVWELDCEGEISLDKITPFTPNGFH

The compound `CC(C)(C)C#Cc1ccc2c(c1)C=C([N+](=O)[O-])C(C(F)(F)F)O2` (stereo unspecified) had an inhibition constant Ki of 2100 nM. That is a single-digit micromolar value.
